The test system of one data set is A. calcoaceticus 15473A. Nature of the data set: Minimum inhibitory concentration, agar dilution. The format is cell-based. Particulars: Acinetobacter calcoaceticus, Muller-Hinton agar, 10^7 CFU per ml, 37° C., 20 hours. As for the experimental part: (§1) The minimum inhibitory concentration was determined by diluting the test compounds according to 2-fold dilution, suspending them in M uller-Hinton agar medium, inoculating the test strains having 10^7 CFU per 1 ml into the medium and then culturing the medium at 37° C. for 20 hours.

The next data set relates to E. cloacae 1194E. The data set can be described thus: Minimum inhibitory concentration, agar dilution. The format is cell-based. Particulars: Enterobacter cloacae, 1194E, 20 h, read-out: Minimum Inhibitory Concentration. As to the method:
as §1
(In general: In agar dilution, organisms are placed on agar that contains the substance at set levels.)

For another data set, the system named is E. coli 10536. The data set can be described thus: Minimum inhibitory concentration, agar dilution. The format is cell-based. As to conditions: read-out: Minimum Inhibitory Concentration. As to the method:
as §1

For another data set, the system named is E. coli 3190Y. The data set can be described thus: Minimum inhibitory concentration, agar dilution. The data set is classed as cell-based. Particulars: Escherichia coli, read-out: Minimum Inhibitory Concentration. As to the method: as §1
A further data set relates to E. coli TEM1 1193E. The data set can be described thus: Minimum inhibitory concentration, agar dilution. The data set is classed as cell-based. Particulars: Escherichia coli, TEM11193E, 20 h, read-out: Minimum Inhibitory Concentration. As for the experimental part:
as §1

The test system of another data set is E. coli TEM5 3739E. Nature of the data set: Minimum inhibitory concentration, agar dilution. The format is cell-based. Particulars: Escherichia coli, TEM53739E, 20 h, read-out: Minimum Inhibitory Concentration. As for the experimental part:
as §1

Another data set deals with E. coli TEM9 2639E. Nature of the data set: Minimum inhibitory concentration, agar dilution. The data set is classed as cell-based. Particulars: Escherichia coli, TEM92639E, 20 h, read-out: Minimum Inhibitory Concentration. As to the method:
as §1

For another data set, the system named is K. aerogenes 1976E. The data set can be described thus: Minimum inhibitory concentration, agar dilution. As to conditions: Klebsiella aerogenes, Muller-Hinton agar, 10^7 CFU per ml, 37° C., 20 hours. The data set is classed as cell-based. As for the experimental part: as §1
A further data set relates to P. aeruginosa 10145. Nature of the data set: Minimum inhibitory concentration, agar dilution. Particulars: Pseudomonas aeruginosa, Muller-Hinton agar, 10^7 CFU per ml, 37° C., 20 hours. The format is cell-based. As to the method: as §1
The test system of the next data set is P. aeruginosa 1912E. Nature of the data set: Minimum inhibitory concentration, agar dilution. The format is cell-based. Particulars: Pseudomonas aeruginosa, 20 h, read-out: Minimum Inhibitory Concentration. As for the experimental part:
as §1

The subject of a further data set is P. aeruginosa 6065Y. The data set can be described thus: Minimum inhibitory concentration, agar dilution. The data set is classed as cell-based. As to conditions: Pseudomonas aeruginosa, 20 h, read-out: Minimum Inhibitory Concentration. As for the experimental part:
as §1

The next data set concerns S. aureus 6538pA. Nature of the data set: Minimum inhibitory concentration, agar dilution. The data set is classed as cell-based. Particulars: Staphylococcus aureus, Muller-Hinton agar, 10^7 CFU per ml, 37° C., 20 hours. As to the method:
as §1

For a further data set, the system named is S. aureus giorigio. Nature of the data set: Minimum inhibitory concentration, agar dilution. Particulars: Staphylococcus aureus, Muller-Hinton agar, 10^7 CFU per ml, 37° C., 20 hours. The data set is classed as cell-based. As to the method:
as §1

In the next data set the test system is S. faecalis 29212A. Nature of the data set: Minimum inhibitory concentration, agar dilution. The data set is classed as cell-based. As to conditions: Enterococcus faecalis, read-out: Minimum Inhibitory Concentration. As to the method:
as §1

In another data set the test system is S. marcescens 1826E. Nature of the data set: Minimum inhibitory concentration, agar dilution. As to conditions: Serratia marcescens, Muller-Hinton agar, 10^7 CFU per ml, 37° C., 20 hours. The format is cell-based. As to the method:
as §1

In the next data set the test system is S. typhimurium 14028A. Nature of the data set: Minimum inhibitory concentration, agar dilution. The data set is classed as cell-based. As to conditions: Salmonella enterica, read-out: Minimum Inhibitory Concentration. As for the experimental part:
as §1

The nature of data set [1]: Pharmacokinetic properties in SD rats. The format is in vivo. As to conditions: rat; SD rats (male), intravenous, 20 mg/kg; blood, biological assay (agar well method). As for the experimental part: The pharmacokinetic properties of the compound of the present invention were determined using SD rats (.male.) weighing 220 to 340 g. Specifically, the test samples were administered in intravenous route in an amount of 20 mg/kg to 2 to 5 test animals. Blood was taken from femoral vein every hours after the administration and then subjected to a biological assay using agar well method to measure the blood concentration. The results of pharmacokinetic properties calculated from the above blood concentration are described in the following Table 3.

[2] abbreviates: Escherichia coli, E. coli 10536, Muller-Hinton agar, 10^7 CFU per ml, 37° C., 20 hours.
The mark [3] stands for this setting: E. coli 3190Y, Muller-Hinton agar, 10^7 CFU per ml, 37° C., 20 hours.

Each structure is given as a SMILES string. In brackets after ≈: the same amount, converted by molar mass. Where two headings read alike, the source gives them in different places.

Turning to `Cc1c(N)nc(SCC2=C(C(=O)[O-])N3C(=O)C(NC(=O)/C(=N\OC(C(=O)O)c4ccc(O)c(O)c4)c4csc(N)n4)[C@H]3SC2)[n+](N)c1N` (stereo partly drawn) [I-1(a), 7-[(Z)-2-(2-aminothiazol-4-yl)-2-(α-carboxy-3,4-dihydroxybenzyloxyimino)acetamido]-3-(5-methyl-1,4,6-triaminopyrimidinium-2-yl)thiomethyl-3-cephem-4-carboxylate], the MIC in the data set on A. calcoaceticus 15473A was 0.5 µg/mL (≈ 0.696 µM); with E. cloacae 1194E, 1 µg/mL (≈ 1.39 µM); with E. coli 10536 (setting [2]), 0.013 µg/mL (≈ 0.0181 µM); in the data set with E. coli 3190Y (3190Y, 20 h), 0.063 µg/mL (≈ 0.0877 µM); in the data set with E. coli TEM1 1193E, 0.063 µg/mL (≈ 0.0877 µM); in the data set with E. coli TEM5 3739E it was 0.25 µg/mL (≈ 0.348 µM). For the same compound, the MIC in the data set with E. coli TEM9 2639E stood at 1 µg/mL (≈ 1.39 µM); in the data set with K. aerogenes 1976E, 0.13 µg/mL (≈ 0.181 µM); against P. aeruginosa 10145, 0.25 µg/mL (≈ 0.348 µM); in the data set on P. aeruginosa 1912E, 0.5 µg/mL (≈ 0.696 µM); in the data set with P. aeruginosa 6065Y, 0.5 µg/mL (≈ 0.696 µM); in the data set with S. aureus 6538pA, 0.25 µg/mL (≈ 0.348 µM). In addition, the MIC with S. aureus giorigio was 0.13 µg/mL (≈ 0.181 µM); with S. faecalis 29212A (29212A, 20 h), 16 µg/mL (≈ 22.3 µM); with S. marcescens 1826E it was 0.25 µg/mL (≈ 0.348 µM); in the data set with S. typhimurium 14028A (TYPHIMURIUM, 20 h), 0.063 µg/mL (≈ 0.0877 µM). Also, the AUC in [1] was 52500 ng·h/mL. Further, the half-life in data set [1] turned out to be 40 min.

For the compound `Cn1cc[n+]2c(SCC3=C(C(=O)[O-])N4C(=O)C(NC(=O)C(=NOC(C(=O)O)c5ccc(O)c(O)c5)c5csc(N)n5)C4SC3)nc(N)cc12` (stereo not drawn) [I-11(a), 7-[(Z)-2-(2-aminothiazol-4-yl)-2-(α-carboxy-3,4-dihydroxybenzyloxyimino)acetamido]-3-(7-amino-1-methyl-1H-imidazo[1,2-c]pyrimidinium-5-yl)-thiomethyl-3-cephem-4-carboxylate], the MIC in the data set with A. calcoaceticus 15473A is 0.5 µg/mL (≈ 0.687 µM); with E. cloacae 1194E, 1 µg/mL (≈ 1.37 µM); with E. coli 10536 (setting [2]), at most 0.008 µg/mL; in the data set on E. coli 3190Y (setting [3]) it was 0.031 µg/mL (≈ 0.0426 µM); with E. coli TEM1 1193E it was 0.063 µg/mL (≈ 0.0866 µM); in the data set with E. coli TEM5 3739E it was 0.25 µg/mL (≈ 0.344 µM). In addition, the MIC in the data set with E. coli TEM9 2639E turned out to be 1 µg/mL (≈ 1.37 µM); against K. aerogenes 1976E, 0.13 µg/mL (≈ 0.179 µM); in the data set on P. aeruginosa 10145, 0.25 µg/mL (≈ 0.344 µM); in the data set on P. aeruginosa 1912E, 0.5 µg/mL (≈ 0.687 µM); in the data set on P. aeruginosa 6065Y, 0.5 µg/mL (≈ 0.687 µM); against S. aureus 6538pA, 0.5 µg/mL (≈ 0.687 µM). The MIC was 0.5 µg/mL (≈ 0.687 µM) in the data set with S. aureus giorigio; 8 µg/mL (≈ 11 µM) in the data set with S. faecalis 29212A (S. faecalis 29212A, Muller-Hinton agar, 10^7 CFU per ml, 37° C., 20 hours); 0.25 µg/mL (≈ 0.344 µM) in the data set on S. marcescens 1826E; 0.016 µg/mL (≈ 0.022 µM) in the data set with S. typhimurium 14028A (S. typhimurium 14028A, Muller-Hinton agar, 10^7 CFU per ml, 37° C., 20 hours). This compound also had an AUC in data set [1] of 47900 ng·h/mL. This compound displayed a half-life in [1] of 68 min.

Regarding `Nc1nc(C(=NOC(C(=O)O)c2ccc(O)c(O)c2)C(=O)NC2C(=O)N3C(C(=O)[O-])=C(CSc4nc(N)c5c([n+]4N)CCC5)CSC23)cs1` (stereo not drawn) [I-8(a), 7-[(Z)-2-(2-aminothiazol-4-yl)-2-(α-carboxy-3,4-dihydroxybenzyloxyimino)acetamido]-3-(1,4-diamino-1,5,6,7-tetrahydrocyclopentapyrimidin-2-yl) thiomethyl-3-cephem-4-carboxylate], the MIC is 0.25 µg/mL (≈ 0.343 µM) in the data set on A. calcoaceticus 15473A; 2 µg/mL (≈ 2.74 µM) in the data set on E. cloacae 1194E; 0.031 µg/mL (≈ 0.0425 µM) in the data set with E. coli 10536 (setting [2]); 0.031 µg/mL (≈ 0.0425 µM) in the data set on E. coli 3190Y (setting [3]); 0.063 µg/mL (≈ 0.0863 µM) in the data set with E. coli TEM1 1193E; 0.5 µg/mL (≈ 0.685 µM) in the data set on E. coli TEM5 3739E. Also, the MIC in the data set with E. coli TEM9 2639E turned out to be 1 µg/mL (≈ 1.37 µM); in the data set on K. aerogenes 1976E, 0.13 µg/mL (≈ 0.178 µM); against P. aeruginosa 10145 it was 0.5 µg/mL (≈ 0.685 µM); with P. aeruginosa 1912E it was 0.5 µg/mL (≈ 0.685 µM); with P. aeruginosa 6065Y, 1 µg/mL (≈ 1.37 µM); against S. aureus 6538pA it was 0.5 µg/mL (≈ 0.685 µM). In addition, the MIC with S. aureus giorigio turned out to be 0.063 µg/mL (≈ 0.0863 µM); in the data set with S. faecalis 29212A (29212A, 20 h) it was 16 µg/mL (≈ 21.9 µM); in the data set with S. marcescens 1826E, 0.5 µg/mL (≈ 0.685 µM); in the data set with S. typhimurium 14028A (TYPHIMURIUM, 20 h), 0.063 µg/mL (≈ 0.0863 µM). In [1], the AUC is 64500 ng·h/mL. The compound also showed a half-life in data set [1] of 53 min.

For `CC(C)(O/N=C(\C(=O)N[C@@H]1C(=O)N2C(C(=O)[O-])=C(C[n+]3ccccc3)CS[C@H]12)c1csc(N)n1)C(=O)O` [CAZ, Ceftazidime, reference compound], the MIC in the data set with A. calcoaceticus 15473A is 2 µg/mL (≈ 3.66 µM); in the data set on E. cloacae 1194E, 128 µg/mL (≈ 234 µM); with E. coli 10536 (Escherichia coli, 10536, 20 h), 0.13 µg/mL (≈ 0.238 µM); with E. coli 3190Y (3190Y, 20 h), 0.063 µg/mL (≈ 0.115 µM); in the data set on E. coli TEM1 1193E, 0.25 µg/mL (≈ 0.457 µM); in the data set on E. coli TEM5 3739E, 8 µg/mL (≈ 14.6 µM). The MIC was above 128 µg/mL in the data set with E. coli TEM9 2639E; 0.25 µg/mL (≈ 0.457 µM) in the data set with K. aerogenes 1976E; 2 µg/mL (≈ 3.66 µM) against P. aeruginosa 10145; 1 µg/mL (≈ 1.83 µM) in the data set with P. aeruginosa 1912E; 32 µg/mL (≈ 58.5 µM) in the data set with P. aeruginosa 6065Y; 16 µg/mL (≈ 29.3 µM) against S. aureus 6538pA. Besides, the MIC was 4 µg/mL (≈ 7.32 µM) against S. aureus giorigio; above 128 µg/mL with S. faecalis 29212A (29212A, 20 h); 0.25 µg/mL (≈ 0.457 µM) with S. marcescens 1826E; 0.25 µg/mL (≈ 0.457 µM) in the data set with S. typhimurium 14028A (TYPHIMURIUM, 20 h).

One may read the AUC as concentration integrated over time. Lower therefore signals low exposure. What is called half-life is the time in which the quantity being followed falls by half.

Values taken from patent US5605895A, “Cephalosporin antibiotics and processes for preparation thereof” (Lucky, Ltd., priority 1993, dated 1997).
